In patent US9775902B2, “Compounds and methods for treatment of stroke” (FIBROGEN, INC, priority 2006, dated 2017):
Read-outs that look alike come from different tables or passages of the source.

Experiments:
erythropoietin (EPO) [1] = assay: EPO expression in Hep3B cells (QUANTIKINE immunoassay of conditioned media); assay type: cell-based, Human; details: for Fold Increase Over Control: EPO, vs 1% DMSO control; for EPO: conditioned media after overnight incubation with compound
Procedure: The effect of compounds of the present invention on expression of cytoprotective and neuroprotective factors in cells was evaluated as follows. Human cells derived from hepatocarcinoma (Hep3B) tissue (see, e.g., American Type Culture Collection, Manassas Va.) were seeded into 35 mm culture dishes and grown at 37° C., 20% O2, 5% CO2 in Minimal Essential Medium (MEM), Earle's balanced salt solution (Mediatech Inc., Herndon Va.), 2 mM L-glutamine, 0.1 mM non-essential amino acids, 1 mM sodium pyruvate, and 10% FBS. When cell layers reached confluence, the media was replaced with OPTI-MEM media (Invitrogen Life Technologies, Carlsbad Calif.) and cell layers were incubated for approximately 24 hours in 20% O2, 5% CO2 at 37° C. Various compounds of the present invention or 1% DMSO (negative control) were then added to existing media and incubation was continued overnight.
Following incubation, the conditioned media was collected from cell cultures and analyzed for erythropoietin (EPO) expression using a QUANTIKINE immunoassay (R&D Systems, Inc., Minneapolis Minn.) according to the manufacturer's instructions.

erythropoietin (EPO) [2] = assay: EPO expression in Kelly neuroblastoma cells; assay type: cell-based; details: for EPO: conditioned media after overnight incubation
Procedure: (§1) The effect of compounds of the present invention on expression of cytoprotective and neuroprotective factors in neuroblastoma cells was evaluated as follows. Kelly neuroblastoma cells (see, e.g., DSMZ, cat# ACC-355, Braunschweig Germany) were treated with various compounds of the present invention or 1% DMSO (negative control). Following an overnight incubation, the conditioned media was collected from cell cultures and analyzed for erythropoietin (EPO) and vascular endothelial growth factor (VEGF) expression using a QUANTIKINE immunoassay (R&D Systems, Inc., Minneapolis Minn.) according to the manufacturer's instructions.

[3] = test system: vascular endothelial growth factor (VEGF); assay: VEGF expression in Kelly neuroblastoma cells; assay type: cell-based; details: for VEGF: conditioned media after overnight incubation
Procedure: as §1

erythropoietin = assay: Plasma EPO in mice after intravenous injection; assay type: in vivo, Swiss Webster mice; details: mouse plasma, 20 mg/kg i.v., four hours after injection; for fold induction at 20 mg/kg: iv, 4 h, read-out: EPO Fold Increase
Procedure: (§2) The effect of compounds of the present invention on expression of cytoprotective and neuroprotective factors in vivo was evaluated as follows. In one series of experiments, male Swiss Webster mice (29-34 g) were administered various compounds of the present invention via intravenous injection into the caudal tail vein. Animals treated by intravenous injection received a 6 ml/kg volume of either 5% Dextrose with an equimolar amount of NaOH or Meglumine (vehicle control) or 20 mg/kg of a compound of the present invention in 5% dextrose with an equimolar amount of NaOH or Meglumine. Four hours after injection, the animals were anesthetized and exsanguinated. Plasma samples were collected in EDTA and heparin coated microtainer tubes. Plasma samples were assayed for erythropoietin and VEGF using commercially-available ELISA kits purchased from R & D Systems (Minneapolis Minn.).

VEGF = assay: Plasma VEGF in mice after intravenous injection; assay type: in vivo, Swiss Webster mice; details: mouse plasma, 20 mg/kg i.v., four hours after injection; for fold induction at 20 mg/kg: iv, 4 h, read-out: VEGF Fold Increase
Procedure: as §2

[4] = test system: C57BL/6 mice, permanent occlusion of the MCA; assay: Permanent middle cerebral artery occlusion (pMCAO) in C57BL/6 mice: infarct volume and edema; assay type: in vivo; details: Mus musculus, iv, 24 h, C57BL/6 mice pMCAO, 20-60 mg/kg i.v., 24 hours after MCA occlusion, read-out: Percent Reduction in Infarct Volume
Procedure: The effect of compounds of the present invention on infarct volume and edema associated with stroke was examined in an animal model of ischemic stroke. In these studies, mice were subjected to permanent occlusion of the middle cerebral artery. Mice were anesthetized intraperitoneally with avertin (0.5 mg/g). Mice were then immobilized in a rodent stereotaxic frame (Kopf Instruments, Tujunga Calif.) and maintained with avertin as needed. The surgical area of the head was swabbed with 70% ethanol and a lateral incision was made between the right orbit and the right ear. […] The distal course of the middle cerebral artery (MCA) was visible through the translucent skull. A small burr-hole craniotomy was performed with a micro-drill (Fine Science Tools, Foster City Calif.). The meninges/dura was removed and the MCA was coagulated by bipolar diathermy. The muscle and soft tissue were replaced and the incision closed with vet-bond adhesive (3M, St. Paul Minn.). These studies were performed in two different mouse models of pMCAO as described below.
In one series of experiments, male C57BL/6 mice (25-35 g) were subjected to permanent occlusion of the MCA as described above. Compounds of the present invention were administered by intravenous injection at various times before or after MCA occlusion (see Table 7). Animals administered compound by intravenous injection received a 6 ml/kg volume of either 5% Dextrose with an equimolar amount of Meglumine (vehicle control) or 20-60 mg/kg of a compound of the present invention in 5% dextrose with an equimolar amount of Meglumine. Body temperature of the animals was maintained by use of a heating pad both during and after surgery. Twenty-four hours after MCA occlusion animals were euthanized with CO2 and their brains removed. After removal, the brain was sliced in 7 coronal sections, each 1 mm thick. The sections were placed rostral side down in a petri dish and stained with 1% Triphenyl tetrazolium chloride for 20 minutes at 37° C. for determination of infarct volume. Brain sections were then digitally photographed and analyzed for changes in infarct volume and extent of edema. Infarct volumes were determined by measuring the infarcted (i.e., non-stained) areas of each brain section and multiplying this value by the section thickness. Extent of edema was determined by the net increase in volume of the ipsilateral cortex compared to that of the contralateral cortex of brain sections.
The effect of compounds of the present invention administered at various times following the onset of stroke was examined further as follows. In these studies, changes in infarct volume were measured using an animal model of stroke when compounds of the present invention were administered from 0 to 8 hours following permanent MCA occlusion. In one series of experiments, male C57BL/6 mice (25-35 g) were subjected to permanent occlusion of the MCA as described above. Compound F was administered to the animals by a single intravenous bolus injection at various times up to 5 hours after MCA occlusion (see Table 8 below). Animals administered compound by intravenous injection received a 6 ml/kg volume of either 5% Dextrose with an equimolar amount of NaOH (vehicle control) or 60 mg/kg of Compound F in 5% dextrose with an equimolar amount of NaOH. Body temperature of the animals was maintained by use of a heating pad both during and after surgery. Changes in infarct volumes were determined as described above.
In another set of experiments, male C57BL/6 mice (25-35 g) were subjected to permanent occlusion of the MCA as described above. Compound F was administered by single intravenous bolus injection at various times up to 8 hours after MCA occlusion (see Table 9 below). Animals administered compound by intravenous injection received a 6 ml/kg volume of either 5% Dextrose with an equimolar amount of Meglumine (vehicle control) or 60 mg/kg of Compound F in 5% dextrose with an equimolar amount of Meglumine. […]

[5] = compound given 4 hr after occlusion

`N#Cc1nc(C(=O)NCC(=O)O)c(O)c2c(Oc3ccccc3)cccc12` [Compound AM, [(1-Cyano-4-hydroxy-5-phenoxy-isoquinoline-3-carbonyl)-amino]-acetic acid] was tested, and the “Fold Increase Over Control” value (erythropoietin (EPO) [1]) was 8.2, the EPO (erythropoietin (EPO) [1]) was 44.3 mIU/ml and the “EPO Fold Increase” value (erythropoietin (EPO) [2]) was 6.25. The EPO (erythropoietin (EPO) [2]) was 118.07 mIU/ml, the “VEGF Fold Increase” value [3] was 4.0 and the VEGF [3] was 5825 pg/mL. For the same compound, the fold induction at 20 mg/kg (erythropoietin) was 235, the EPO (erythropoietin; mouse EPO ELISA kit (**)) was 28206 pg/mL and the fold induction at 20 mg/kg (VEGF) was 0.38. For the same compound, the VEGF (VEGF) was 24 pg/mL and the inhibition in vivo at up to 20 mg/kg [4, 5] was 71%.

`N#Cc1nc(C(=O)NCC(=O)O)c(O)c2cc(Oc3ccc4c(c3)CCO4)ccc12` [Compound AO, {[1-Cyano-6-(2,3-dihydro-benzofuran-5-yloxy)-4-hydroxy-isoquinoline-3-carbonyl]-amino}-acetic acid] was tested, and the “Fold Increase Over Control” value (erythropoietin (EPO) [1]) was 83.4, the EPO (erythropoietin (EPO) [1]) was 83.4 mIU/ml and the “EPO Fold Increase” value (erythropoietin (EPO) [2]) was 19.55. The EPO (erythropoietin (EPO) [2]) was 369.5 mIU/ml, the “VEGF Fold Increase” value [3] was 4.6 and the VEGF [3] was 6653 pg/mL. For the same compound, the fold induction at 20 mg/kg (erythropoietin) was 92.8, the EPO (erythropoietin; mouse EPO ELISA kit (**)) was 12719 pg/mL and the fold induction at 20 mg/kg (VEGF) was 0.97. It also gave a VEGF (VEGF) of 38 pg/mL and an inhibition in vivo at up to 20 mg/kg [4, 5] of 55%.

`Cc1nc2ccc(Oc3ccc4c(O)c(C(=O)NCC(=O)O)ncc4c3)cc2o1` [Compound N, {[4-Hydroxy-7-(2-methyl-benzooxazol-6-yloxy)-isoquinoline-3-carbonyl]-amino}-acetic acid] was tested, and the “Fold Increase Over Control” value (erythropoietin (EPO) [1]) was 13.5, the EPO (erythropoietin (EPO) [1]) was 89.9 mIU/ml and the “EPO Fold Increase” value (erythropoietin (EPO) [2]) was 14.52. The EPO (erythropoietin (EPO) [2]) was 380.5 mIU/ml, the “VEGF Fold Increase” value [3] was 4.6 and the VEGF [3] was 6316 pg/mL. It also gave a fold induction at 20 mg/kg (erythropoietin) of 70.2, an EPO (erythropoietin; mouse EPO ELISA kit (**)) of 63.2 pg/mL and a fold induction at 20 mg/kg (VEGF) of 2.28. It also gave a VEGF (VEGF) of 66 pg/mL and an inhibition in vivo at up to 20 mg/kg ([4]; compound given 0 hr) of 46%.

`O=C(O)CNC(=O)c1ncc2cc(Oc3ccccc3)ccc2c1O` [Compound AC, [(4-Hydroxy-7-phenoxy-isoquinoline-3-carbonyl)-amino]acetic acid] was tested, and the “Fold Increase Over Control” value (erythropoietin (EPO) [1]) was 10.8, the EPO (erythropoietin (EPO) [1]) was 160.1 mIU/ml and the “EPO Fold Increase” value (erythropoietin (EPO) [2]) was 11.9. The EPO (erythropoietin (EPO) [2]) was 73.8 mIU/ml, the “VEGF Fold Increase” value [3] was 15.8 and the VEGF [3] was 2503.8 pg/mL. The fold induction at 20 mg/kg (erythropoietin) was 2940, the EPO (erythropoietin; human EPO ELISA kit (*)) was 294 mIU/ml and the fold induction at 20 mg/kg (VEGF) was 2.15. For the same compound, the VEGF (VEGF) was 70 pg/mL and the inhibition in vivo at up to 20 mg/kg ([4]; compound given 0 hr) was 17%.
